Assay results from patent US20240336602A1 (Katholieke Universiteit Leuven, priority 2020, published 2024).

Target: T1, mouse TRPM3a2 (mTRPM3) ion channel (Mus musculus, UniProt J9SQF3)
T1 construct: expressed in transfected cells; host or cells: flip-in HEK293
Test: TRPM3 ion channel driven Ca2+ uptake, Fluo-4 AM assay (PS-stimulated, overexpressing flip-in HEK293 cells)
Type: cell-based
Conditions: PS (50 μM) stimulated Ca2+ influx, HEK293, cpds 200-299
Description: In order to monitor the inhibition of the mouse TRPM3a2 (mTRPM3) ion channel by the compounds of the invention, a cellular system making use of an mTRPM3alpha2 or hTRPM3 overexpressing cell line (flip-in HEK293) was used. The TRPM3 channel was stimulated/opened with Pregnenolone sulfate (PS) (50 μM) which results in Ca^2+ influx.
For mTRPM3, the intracellular Ca^2+ was measured with a Calcium responsive dye, Fluor-4 AM ester (Invitrogen). Cells were cultured until a confluence of 80-90%, washed with Versene (Invitrogen) and detached from the surface by a short incubation with 0.05% Trypsin (Invitrogen). The trypsination process was stopped by the addition of complete cell culture medium (DMEM, glutamax, 10% FCS, NEAA, Pen-Strep). Cells were collected and resuspended in Krebs buffer without Calcium at RT.
Prior the cell seeding (±2000 cells/well into a black, 384 well plate (Greiner)) the diluted compound was added in the assay plate, together with the PS dissolved in Krebs buffer containing Calcium. […] Directly after cell addition the plates were read on an Envision fluorescence reader (Perkin Elmer) by an Excitation of 485 nm and emission at 535 nm.
Channel inhibition was calculated compared to a non-PS stimulated control versus a condition stimulated with PS (50 μM) with vehicle. The ability of the compounds of the invention to inhibit this activity was determined as: Percentage inhibition=[1-((RFU determined for sample with test compound present—RFU determined for sample with positive control inhibitor) divided by (RFU determined in the presence of vehicle—RFU determined for sample with positive control inhibitor))]*100.

T1 sequence (J9SQF3 1-1709 isoform J9SQF3-12): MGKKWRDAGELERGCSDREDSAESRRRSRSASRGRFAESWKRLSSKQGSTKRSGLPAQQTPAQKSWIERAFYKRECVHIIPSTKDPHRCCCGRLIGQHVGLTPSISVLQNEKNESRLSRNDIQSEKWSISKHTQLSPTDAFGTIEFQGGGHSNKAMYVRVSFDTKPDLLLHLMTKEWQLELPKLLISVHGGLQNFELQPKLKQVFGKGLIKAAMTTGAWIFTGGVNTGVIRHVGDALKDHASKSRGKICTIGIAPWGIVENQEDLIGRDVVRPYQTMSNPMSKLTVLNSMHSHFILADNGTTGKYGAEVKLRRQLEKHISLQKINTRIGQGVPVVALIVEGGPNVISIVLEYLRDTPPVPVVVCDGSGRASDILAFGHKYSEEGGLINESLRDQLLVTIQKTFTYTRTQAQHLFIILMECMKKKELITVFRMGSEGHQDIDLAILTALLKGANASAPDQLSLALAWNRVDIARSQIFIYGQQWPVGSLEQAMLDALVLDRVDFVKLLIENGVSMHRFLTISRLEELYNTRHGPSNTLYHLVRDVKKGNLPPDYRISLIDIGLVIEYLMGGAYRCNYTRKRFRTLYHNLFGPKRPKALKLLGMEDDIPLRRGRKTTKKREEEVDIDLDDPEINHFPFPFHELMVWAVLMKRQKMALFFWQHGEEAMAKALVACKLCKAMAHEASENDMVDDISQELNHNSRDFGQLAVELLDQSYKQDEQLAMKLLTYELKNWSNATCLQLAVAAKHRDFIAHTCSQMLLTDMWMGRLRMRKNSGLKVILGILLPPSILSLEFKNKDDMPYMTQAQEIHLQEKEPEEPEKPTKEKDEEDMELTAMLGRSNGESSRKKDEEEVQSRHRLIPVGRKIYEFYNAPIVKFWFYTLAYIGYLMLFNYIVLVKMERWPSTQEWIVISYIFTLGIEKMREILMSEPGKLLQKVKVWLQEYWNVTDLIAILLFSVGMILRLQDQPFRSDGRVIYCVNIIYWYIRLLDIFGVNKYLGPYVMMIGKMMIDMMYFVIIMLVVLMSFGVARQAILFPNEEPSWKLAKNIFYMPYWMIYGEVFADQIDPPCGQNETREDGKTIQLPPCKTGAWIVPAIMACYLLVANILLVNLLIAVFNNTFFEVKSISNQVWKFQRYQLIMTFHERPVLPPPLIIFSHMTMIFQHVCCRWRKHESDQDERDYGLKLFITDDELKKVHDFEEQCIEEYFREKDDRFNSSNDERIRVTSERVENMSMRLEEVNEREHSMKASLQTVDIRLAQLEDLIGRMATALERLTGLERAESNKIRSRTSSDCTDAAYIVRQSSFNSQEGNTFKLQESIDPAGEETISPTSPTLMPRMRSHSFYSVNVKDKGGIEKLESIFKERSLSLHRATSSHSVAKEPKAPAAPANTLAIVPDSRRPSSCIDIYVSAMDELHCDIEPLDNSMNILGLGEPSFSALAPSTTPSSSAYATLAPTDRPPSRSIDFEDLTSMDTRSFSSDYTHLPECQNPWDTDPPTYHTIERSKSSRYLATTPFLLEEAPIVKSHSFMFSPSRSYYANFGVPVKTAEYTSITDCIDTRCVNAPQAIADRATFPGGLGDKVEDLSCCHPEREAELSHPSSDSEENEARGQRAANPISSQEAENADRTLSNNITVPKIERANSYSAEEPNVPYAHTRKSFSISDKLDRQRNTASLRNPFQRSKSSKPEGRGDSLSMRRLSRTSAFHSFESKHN

Work on `Cc1ncc(COc2ccc3oc(C)c(C(=O)N[C@@H](CO)C(=O)N4CCC(F)(F)C4)c3c2)s1` [cpd 277, (S)-N-(1-(3,3-difluoropyrrolidin-1-yl)-3-hydroxy-1-oxopropan-2-yl)-2-methyl-5-((2-methylthiazol-5-yl)methoxy)benzofuran-3-carboxamide] yielded an IC50 of 1000 to 20000 nM.

Same assay, conditions: PS (50 μM) stimulated Ca2+ influx, HEK293, cpds 300-399

Work on `Cc1ncc(COc2ccc3oc(C)c(C(=O)NC4COCC4O)c3c2)s1` (single isomer, unassigned) [388 - En 1] yielded an IC50 of no more than 1000 nM.
Molecule `Cc1ncc(COc2ccc3oc(C)c(C(=O)NC4COCC4O)c3c2)s1` (single isomer, unassigned) [388 - En 2] has an IC50 of 1000 to 20000 nM.

Same assay, conditions: PS (50 μM) stimulated, cpd 001-199

`COc1ncccc1COc1ccc2oc(C)c(C(=O)NC3CCNCC3(F)F)c2c1` (centres unmarked) [cpd 062, N-(3,3-difluoropiperidin-4-yl)-5-((2-methoxypyridin-3-yl)methoxy)-2-methylbenzofuran-3-carboxamide] and `Cc1cccnc1COc1ccc2oc(C)c(C(=O)NC3CCNCC3(F)F)c2c1` (centres unmarked) [cpd 053, N-(3,3-difluoropiperidin-4-yl)-2-methyl-5-((3-methylpyridin-2-yl)methoxy)benzofuran-3-carboxamide] cannot be ordered by IC50: no more than 1000 nM for the first, 1000 to 20000 nM for the second.

`Cc1cncc(COc2ccc3oc(C)c(C(=O)N[C@H]4CCN(C(=O)OC(C)(C)C)C4)c3c2)c1` [cpd 073, tert-butyl (S)-3-(2-methyl-5-((5-methylpyridin-3-yl)methoxy)benzofuran-3-carboxamido)pyrrolidine-1-carboxylate] and `Cc1oc2ccc(OCc3cnco3)cc2c1C(=O)N[C@H]1CCNC1` [cpd 020, (S)-2-methyl-5-(oxazol-5-ylmethoxy)-N-(pyrrolidin-3-yl)benzofuran-3-carboxamide] fall in the same range of IC50: 1000 to 20000 nM for the first, 1000 to 20000 nM for the second.

`Cc1ncsc1COc1ccc2oc(C)c(C(=O)NC3CN(C)CC3(F)F)c2c1` (single isomer, unassigned) [123 - En 1] and `Cc1ncsc1COc1ccc2oc(C)c(C(=O)O)c2c1` [cpd 102, 2-methyl-5-((4-methylthiazol-5-yl)methoxy)benzofuran-3-carboxylic acid] cannot be ordered by IC50: no more than 1000 nM for the first, 1000 to 20000 nM for the second.

`Cc1oc2ccc(OCc3nccs3)cc2c1C(=O)NC1CCNC1=O` (centres unmarked) [compound 036, 2-methyl-N-(2-oxopyrrolidin-3-yl)-5-(thiazol-2-ylmethoxy)benzofuran-3-carboxamide] and `Cc1oc2ccc(OCc3cnccn3)cc2c1C(=O)NC1CCNC1=O` (centres unmarked) [cpd 031, 2-methyl-N-(2-oxopyrrolidin-3-yl)-5-(pyrazin-2-ylmethoxy)benzofuran-3-carboxamide] cannot be ordered by IC50: no more than 1000 nM for the first, 1000 to 20000 nM for the second.

`COc1ncccc1COc1ccc2oc(C)c(C(=O)NC3CCNC3=O)c2c1` (centres unmarked) [compound 046, 5-((2-methoxypyridin-3-yl)methoxy)-2-methyl-N-(2-oxopyrrolidin-3-yl)benzofuran-3-carboxamide] and `COCCN1CCC(NC(=O)c2c(C)oc3ccc(OCc4scnc4C)cc23)C1=O` (single isomer, unassigned) [169 - En 1] cannot be ordered by IC50: no more than 1000 nM for the first, no more than 1000 nM for the second.

`Cc1oc2ccc(OCc3nccs3)cc2c1C(=O)O` [cpd 013, 2-methyl-5-(thiazol-2-ylmethoxy)benzofuran-3-carboxylic acid] and `Cc1ccncc1COc1ccc2oc(C)c(C(=O)O)c2c1` [cpd 099, 2-methyl-5-((4-methylpyridin-3-yl)methoxy)benzofuran-3-carboxylic acid] fall in the same range of IC50: 1000 to 20000 nM for the first, 1000 to 20000 nM for the second.

`Cc1ncsc1COc1cc(Cl)c2oc(C)c(C(=O)NC3(CO)CCOCC3)c2c1` [cpd 187, 7-chloro-N-(4-(hydroxymethyl)tetrahydro-2H-pyran-4-yl)-2-methyl-5-((4-methylthiazol-5-yl)-methoxy)benzofuran-3-carboxamide] gave an IC50 of 1000 to 20000 nM.

Same assay, conditions: PS (50 μM) stimulated, cpds. 400-499

`Cc1oc2ccc(OCc3nccs3)cc2c1C(=O)NC1CCN(CCO)C1=O` (single isomer, unassigned) [407 - En 2] and `Cc1oc2ccc(OCc3nccn3C)cc2c1C(=O)NC1CCN(CCO)C1=O` (single isomer, unassigned) [403 - En 1] fall in the same range of IC50: 1000 to 20000 nM for the first, 1000 to 20000 nM for the second.

`Cc1ncc(COc2ccc3oc(C)c(C(=O)NC(CN(C)C4CC4)C(N)=O)c3c2)s1` (single isomer, unassigned) [445 - En 2] and `Cc1ncsc1COc1ccc2oc(C)c(C(=O)NC(CN(C)C3CC3)C(N)=O)c2c1` (single isomer, unassigned) [446 - En 2] fall in the same range of IC50: 1000 to 20000 nM for the first, 1000 to 20000 nM for the second.

`Cc1ncsc1COc1ccc2oc(C)c(C(=O)NC(CO)C(=O)N(C)C)c2c1` (single isomer, unassigned) [411 - En 1] and `Cc1ncsc1COc1ccc2oc(C)c(C(=O)NC(CN(C)C)C(N)=O)c2c1` (single isomer, unassigned) [450 - En 1] cannot be ordered by IC50: no more than 1000 nM for the first, no more than 1000 nM for the second.

`Cc1oc2ccc(OCc3ccccn3)cc2c1C(=O)NC(C)C(N)=O` (centres unmarked) [435 - En 2] and `Cc1oc2ccc(OCc3ccccn3)cc2c1C(=O)NC(CO)C(N)=O` (centres unmarked) [455 - En 2] cannot be ordered by IC50: no more than 1000 nM for the first, no more than 1000 nM for the second.

`Cc1oc2ccc(OCc3cccnc3O)cc2c1C(=O)NC1(C(N)=O)CC1` [cpd 479, N-(1-carbamoylcyclopropyl)-5-((2-hydroxypyridin-3-yl)methoxy)-2-methylbenzofuran-3-carboxamide] and `Cc1ncsc1COc1ccc2oc(C)c(C(=O)NC3CCN(CCOCCO)C3=O)c2c1` (centres unmarked) [402 - En 1] fall in the same range of IC50: 1000 to 20000 nM for the first, 1000 to 20000 nM for the second.

Same assay, conditions: PS (50 μM) stimulated, cpds. 500-599

`Cc1ncsc1COc1ccc2oc(C)c(C(=O)NC3(CO)CCCNC3=O)c2c1` (single isomer, unassigned) [513 - En 1] and `Cc1ncccc1COc1ccc2oc(C)c(C(=O)NC3(CO)CCNC3=O)c2c1` (single isomer, unassigned) [516 - En 1] cannot be ordered by IC50: no more than 1000 nM for the first, no more than 1000 nM for the second.

`Cc1ncccc1COc1ccc2oc(C)c(C(=O)NC3(C(N)=O)CCOC3)c2c1` (single isomer, unassigned) [591 - En 1] and `COc1ncccc1COc1ccc2oc(C)c(C(=O)NC3(C(N)=O)CCOC3)c2c1` (single isomer, unassigned) [597 - En 1] cannot be ordered by IC50: no more than 1000 nM for the first, no more than 1000 nM for the second.

`Cc1oc2ccc(OCc3ccccn3)cc2c1C(=O)NC1(CO)CCNC1=O` (single isomer, unassigned) [520 - En 2] and `Cc1ccc(COc2ccc3oc(C)c(C(=O)NC4(C(N)=O)CCOC4)c3c2)cn1` (single isomer, unassigned) [594 - En 2] cannot be ordered by IC50: no more than 1000 nM for the first, no more than 1000 nM for the second.

`Cc1oc2ccc(OCc3cccn(C)c3=O)cc2c1C(=O)NC1CCNCC1(F)F` (single isomer, unassigned) [544 - En 1] and `Cc1oc2ccc(OCc3nccn3C)cc2c1C(=O)NC1(C(N)=O)COC1` [cpd 578, N-(3-carbamoyloxetan-3-yl)-2-methyl-5-((1-methyl-1H-imidazol-2-yl)methoxy)benzofuran-3-carboxamide] fall in the same range of IC50: 1000 to 20000 nM for the first, 1000 to 20000 nM for the second.

`Cc1ncsc1COc1ccc2oc(C)c(C(=O)NCC(N)=O)c2c1` [cpd 503, N-(2-amino-2-oxoethyl)-2-methyl-5-((4-methylthiazol-5-yl)methoxy)benzofuran-3-carboxamide] showed an IC50 of no more than 1000 nM.

Same assay, conditions: PS (50 μM) stimulated, cpds. 600-666

`Cc1oc2ccc(OCc3cccnc3C(F)(F)F)cc2c1C(=O)N(CCO)C1CCC1` [cpd 659, N-cyclobutyl-N-(2-hydroxyethyl)-2-methyl-5-((2-(trifluoromethyl)pyridin-3-yl)methoxy)benzofuran-3-carboxamide] and `Cc1oc2ccc(OCc3ncccn3)cc2c1C(=O)NC1(CO)CCOCC1` [cpd 626, N-(4-(hydroxymethyl)tetrahydro-2H-pyran-4-yl)-2-methyl-5-(pyrimidin-2-ylmethoxy)benzofuran-3-carboxamide] fall in the same range of IC50: 1000 to 20000 nM for the first, 1000 to 20000 nM for the second.

With `Cc1oc2ccc(OCc3cccn(C)c3=O)cc2c1C(=O)NC1(CO)CCOCC1` [cpd 609, N-(4-(hydroxymethyl)tetrahydro-2H-pyran-4-yl)-2-methyl-5-((1-methyl-2-oxo-1,2-dihydropyridin-3-yl)methoxy)benzofuran-3-carboxamide] the IC50 was 1000 to 20000 nM.

Same assay, conditions: PS (50 μM) stimulated, cpds. 667-751

`Cc1ncc(COc2ccc3oc(C)c(C(=O)NC4(C(N)=O)CCOC4)c3c2)o1` (single isomer, unassigned) [725 - En 1] and `Cc1oc2ccc(OCc3ccnn3CC(F)F)cc2c1C(=O)NC1(C(N)=O)CCOC1` (single isomer, unassigned) [740 - En 2] cannot be ordered by IC50: no more than 1000 nM for the first, no more than 1000 nM for the second.

`Cc1oc2ccc(OCc3c[nH]nc3C(F)(F)F)cc2c1C(=O)NC1(CO)CCCNC1=O` (single isomer, unassigned) [731 - En 1] and `Cc1oc2ccc(OCc3ccccn3)cc2c1C(=O)NC1(CO)CCCNC1=O` (single isomer, unassigned) [719 - En 1] cannot be ordered by IC50: no more than 1000 nM for the first, no more than 1000 nM for the second.

`Cc1oc2ccc(OCc3c[nH]nc3C(F)(F)F)cc2c1C(=O)N[C@H](C(N)=O)[C@@H](C)O` [cpd 685, N-((2S,3R)-1-amino-3-hydroxy-1-oxobutan-2-yl)-2-methyl-5-((3-(trifluoromethyl)-1H-pyrazol-4-yl)methoxy)benzofuran-3-carboxamide] and `Cc1oc2ccc(OCc3cccnn3)cc2c1C(=O)NC1(CO)CCNC1=O` (single isomer, unassigned) [734 - En 2] cannot be ordered by IC50: no more than 1000 nM for the first, 1000 to 20000 nM for the second.
